Experimental data: US3968251A, “Arylacetylene compounds as antithrombotic agents” (Eli Lilly and Company, priority 1975, dated 1976)
Like-named read-outs stand apart in the source and are kept apart here.

Tested on: collagen-induced platelet aggregation
Assay: collagen-induced platelet aggregation after oral dosing (method of Herrmann, et al., 139, 548 (1972))
Type: in vivo, Guinea pig
Details: for inhibition at 25 mg/kg: Cavia porcellus, Platelet, po, oral 25 mg/kg, guinea pig, read-out: Percent Inhibition of Collagen-Induced Platelet Aggregation
Method: Exp. Biol. Med., 139, 548 (1972).
The effect of (2'-fluoro-4-biphenyl)acetylene on collagen-induced platelet aggregation was tested by the method of Hermann, et al., Proc. Soc. Exp. Biol. Med., 139, 548 (1972). Guinea pigs weighing 300-400 g, were used. The compound was administered by oral dosing. At time intervals after dosing, blood samples were obtained for assessing platelet function. The collagen used to induce platelet aggregation was prepared from a stock solution obtained by solubilizing Sigma bovine Achilles Tendon with acetic acid. […] Each day 0.4 ml of 1 M aqueous hydroxide was added to a 1.0-ml aliquot of the stock solution, followed by further dilution with saline to yield the appropriate dilutions for use.

## C#Cc1ccc(-c2ccccc2F)cc1 [(2'-fluoro-4-biphenyl)acetylene]
20 hours after oral dosing
  duration of activity (in words): activity still was observed 20 hours after dosing, indicating a long duration of activity
1.5 h, 90 min. after dosing, collagen dilution 1:4
  inhibition at 25 mg/kg: 13%
1.5 h, 90 min. after dosing, collagen dilution 1:16, significant at P=0.05
  inhibition at 25 mg/kg: 35%
1.5 h, 90 min. after dosing, collagen dilution 1:32, significant at P=0.01
  inhibition at 25 mg/kg: 81%
3 h, 3 hrs. after dosing, collagen dilution 1:4, significant at P=0.01
  inhibition at 25 mg/kg: 44%
3 h, 3 hrs. after dosing, collagen dilution 1:16, significant at P=0.01
  inhibition at 25 mg/kg: 69%
3 h, 3 hrs. after dosing, collagen dilution 1:32, significant at P=0.01
  inhibition at 25 mg/kg: 86%
6 h, 6 hrs. after dosing, collagen dilution 1:4
  inhibition at 25 mg/kg: 16%
6 h, 6 hrs. after dosing, collagen dilution 1:16, significant at P=0.05
  inhibition at 25 mg/kg: 42%
6 h, 6 hrs. after dosing, collagen dilution 1:32, significant at P=0.01
  inhibition at 25 mg/kg: 49%
20 h, 20 hrs. after dosing, collagen dilution 1:4
  inhibition at 25 mg/kg: 18%
20 h, 20 hrs. after dosing, collagen dilution 1:16, significant at P=0.01
  inhibition at 25 mg/kg: 62%
20 h, 20 hrs. after dosing, collagen dilution 1:32, significant at P=0.01
  inhibition at 25 mg/kg: 95%
After oral dosing
  inhibition of collagen-induced platelet aggregation (in words): active inhibitor of collagen-induced platelet aggregation
Highest collagen concentration, after oral dosing
  inhibition at highest collagen concentration (in words): inhibited only at three hours after dosing
Weakest collagen challenge, after oral dosing
  inhibition of weakest collagen challenge (in words): markedly inhibited at all time intervals after oral dosing
